The NIST ThermoML archive (doi:10.1016/j.tca.2014.03.004)
Numbers after ± are expanded uncertainties.

Experiment: mn = molality of the nth substance listed, in mol/kg
Conditions: 101.3 kPa, Liquid; for speed of sound: Sing-around technique in a fixed-path interferometer; for mass density: Vibrating tube method

**Q.** Which results are given for `N[C@@H](Cc1ccc(O)cc1)C(=O)O` [3-(p-hydroxyphenyl)-L-alanine] + O?
**A.** speed of sound (298.15 K, m1 = 0.000125): 1496.6 ± 1.2 m/s; speed of sound (298.15 K, m1 = 0.00025): 1496.8 ± 1.2 m/s; speed of sound (298.15 K, m1 = 0.0005): 1496.7 ± 1.2 m/s; speed of sound (298.15 K, m1 = 0.001): 1497.2 ± 1.2 m/s; speed of sound (298.15 K, m1 = 0.00125): 1496.8 ± 1.2 m/s; speed of sound (298.15 K, m1 = 0.0015): 1496.8 ± 1.2 m/s; speed of sound (298.15 K, m1 = 0.002): 1496.8 ± 1.2 m/s; mass density (298.15 K, m1 = 0.000125): 997.061 ± 0.11 kg/m3; mass density (298.15 K, m1 = 0.00025): 997.068 ± 0.11 kg/m3; mass density (298.15 K, m1 = 0.0005): 997.082 ± 0.11 kg/m3; mass density (298.15 K, m1 = 0.001): 997.112 ± 0.11 kg/m3; mass density (298.15 K, m1 = 0.00125): 997.125 ± 0.11 kg/m3; mass density (298.15 K, m1 = 0.0015): 997.138 ± 0.11 kg/m3; mass density (298.15 K, m1 = 0.002): 997.168 ± 0.11 kg/m3; speed of sound (308.15 K, m1 = 0.000125): 1519.6 ± 1.2 m/s; speed of sound (308.15 K, m1 = 0.00025): 1519.7 ± 1.2 m/s; speed of sound (308.15 K, m1 = 0.0005): 1519.8 ± 1.2 m/s; speed of sound (308.15 K, m1 = 0.001): 1519.7 ± 1.2 m/s; speed of sound (308.15 K, m1 = 0.00125): 1520.2 ± 1.2 m/s; speed of sound (308.15 K, m1 = 0.0015): 1519.8 ± 1.2 m/s; speed of sound (308.15 K, m1 = 0.002): 1519.8 ± 1.2 m/s; mass density (308.15 K, m1 = 0.000125): 994.051 ± 0.11 kg/m3; mass density (308.15 K, m1 = 0.00025): 994.058 ± 0.11 kg/m3; mass density (308.15 K, m1 = 0.0005): 994.072 ± 0.11 kg/m3; mass density (308.15 K, m1 = 0.001): 994.101 ± 0.11 kg/m3; mass density (308.15 K, m1 = 0.00125): 994.114 ± 0.11 kg/m3; mass density (308.15 K, m1 = 0.0015): 994.126 ± 0.11 kg/m3; mass density (308.15 K, m1 = 0.002): 994.152 ± 0.11 kg/m3; speed of sound (318.15 K, m1 = 0.000125): 1536.3 ± 1.2 m/s; speed of sound (318.15 K, m1 = 0.00025): 1536.5 ± 1.2 m/s; speed of sound (318.15 K, m1 = 0.0005): 1536.3 ± 1.2 m/s; speed of sound (318.15 K, m1 = 0.001): 1536.8 ± 1.2 m/s; speed of sound (318.15 K, m1 = 0.00125): 1536.4 ± 1.2 m/s; speed of sound (318.15 K, m1 = 0.0015): 1536.4 ± 1.2 m/s; speed of sound (318.15 K, m1 = 0.002): 1536.5 ± 1.2 m/s; mass density (318.15 K, m1 = 0.000125): 990.231 ± 0.11 kg/m3; mass density (318.15 K, m1 = 0.00025): 990.238 ± 0.11 kg/m3; mass density (318.15 K, m1 = 0.0005): 990.251 ± 0.11 kg/m3; mass density (318.15 K, m1 = 0.001): 990.278 ± 0.11 kg/m3; mass density (318.15 K, m1 = 0.00125): 990.29 ± 0.11 kg/m3; mass density (318.15 K, m1 = 0.0015): 990.301 ± 0.11 kg/m3; mass density (318.15 K, m1 = 0.002): 990.318 ± 0.11 kg/m3

**Q.** Which speed of sound (298.15 K, m1 = 0.01) does the source give for `N[C@@H](CCC(=O)O)C(=O)O` [L-glutamic acid] + O here?
**A.** The speed of sound was 1497.4 ± 1.2 m/s.

**Q.** What about the speed of sound (298.15 K, m1 = 0.02) of the same compound?
**A.** The speed of sound was 1498.1 ± 1.2 m/s.

**Q.** What about the speed of sound (298.15 K, m1 = 0.03) of the same compound?
**A.** The speed of sound was 1498.9 ± 1.2 m/s.

**Q.** And the speed of sound (298.15 K, m1 = 0.04)?
**A.** Its speed of sound is 1499.6 ± 1.2 m/s.

**Q.** What about the speed of sound (298.15 K, m1 = 0.05) of the same compound?
**A.** Its speed of sound is 1500.3 ± 1.2 m/s.

**Q.** And the mass density (298.15 K, m1 = 0.01)?
**A.** Its mass density is 997.642 ± 0.11 kg/m3.

**Q.** And the mass density (298.15 K, m1 = 0.02)?
**A.** The mass density was 998.213 ± 0.11 kg/m3.

**Q.** What about the mass density (298.15 K, m1 = 0.03) of the same compound?
**A.** The mass density was 998.786 ± 0.11 kg/m3.

**Q.** What about the mass density (298.15 K, m1 = 0.04) of the same compound?
**A.** The mass density was 999.352 ± 0.11 kg/m3.

**Q.** What about the mass density (298.15 K, m1 = 0.05) of the same compound?
**A.** The mass density was 999.936 ± 0.11 kg/m3.

**Q.** And the speed of sound (308.15 K, m1 = 0.01)?
**A.** The speed of sound was 1520.4 ± 1.2 m/s.

**Q.** What about the speed of sound (308.15 K, m1 = 0.02) of the same compound?
**A.** The speed of sound was 1521 ± 1.2 m/s.

**Q.** What about the speed of sound (308.15 K, m1 = 0.03) of the same compound?
**A.** The speed of sound was 1521.8 ± 1.2 m/s.

**Q.** And the speed of sound (308.15 K, m1 = 0.04)?
**A.** Its speed of sound is 1522.3 ± 1.2 m/s.

**Q.** What about the speed of sound (308.15 K, m1 = 0.05) of the same compound?
**A.** The speed of sound was 1523.2 ± 1.2 m/s.

**Q.** And the mass density (308.15 K, m1 = 0.01)?
**A.** The mass density was 994.598 ± 0.11 kg/m3.

**Q.** What about the mass density (308.15 K, m1 = 0.02) of the same compound?
**A.** Its mass density is 995.178 ± 0.11 kg/m3.

**Q.** What about the mass density (308.15 K, m1 = 0.03) of the same compound?
**A.** The mass density was 995.742 ± 0.11 kg/m3.

**Q.** What about the mass density (308.15 K, m1 = 0.04) of the same compound?
**A.** Its mass density is 996.302 ± 0.11 kg/m3.

**Q.** And the mass density (308.15 K, m1 = 0.05)?
**A.** Its mass density is 996.73 ± 0.11 kg/m3.

**Q.** What about the speed of sound (318.15 K, m1 = 0.01) of the same compound?
**A.** Its speed of sound is 1537 ± 1.2 m/s.

**Q.** And the speed of sound (318.15 K, m1 = 0.02)?
**A.** Its speed of sound is 1537.7 ± 1.2 m/s.

**Q.** What about the speed of sound (318.15 K, m1 = 0.03) of the same compound?
**A.** The speed of sound was 1538.1 ± 1.2 m/s.

**Q.** And the speed of sound (318.15 K, m1 = 0.04)?
**A.** The speed of sound was 1539 ± 1.2 m/s.

**Q.** And the speed of sound (318.15 K, m1 = 0.05)?
**A.** Its speed of sound is 1539.3 ± 1.2 m/s.

**Q.** And the mass density (318.15 K, m1 = 0.01)?
**A.** Its mass density is 990.784 ± 0.11 kg/m3.

**Q.** And the mass density (318.15 K, m1 = 0.02)?
**A.** The mass density was 991.318 ± 0.11 kg/m3.

**Q.** What about the mass density (318.15 K, m1 = 0.03) of the same compound?
**A.** The mass density was 991.875 ± 0.11 kg/m3.

**Q.** And the mass density (318.15 K, m1 = 0.04)?
**A.** Its mass density is 992.445 ± 0.11 kg/m3.

**Q.** And the mass density (318.15 K, m1 = 0.05)?
**A.** Its mass density is 993.001 ± 0.11 kg/m3.
